One test relates to G. lamblia GS. Kind of test: Trophozoite viability IC50 determination, Giardia assay (ATPLite). It is filed as cell-based. The conditions noted are these: Giardia duodenalis, read-out: Cell viability values Mean IC50 (nM) G. lamblia GS. On the procedure: (§1) Giardia cultures: Trophozoites of G. lamblia isolates WB and GS were grown anaerobically in borosilicate glass screw-cap culture tubes (Fisher Scientific) at pH 7.0 in modified TYI-S-33 medium. The medium was supplemented with 10% heat-inactivated bovine serum (Sigma-Aldrich) and 0.05% bovine bile (Sigma-Aldrich). To attain low-oxygen-tension conditions, the tubes were filled to 85 to 90% of their total volume capacity and incubated without shaking at 37° C. Subcultures (2×10^5 trophozoites per tube) were made three times a week. Detachment of trophozoites for inoculation was achieved by chilling the cultures on ice for 20 min. Culturing and detachment of Metronidazole-resistant G. lamblia Assemblage A 713M3 and assemblage B 1279-M1 trophozoites followed the same protocol, except that the growth medium was supplemented with metronidazole gradually increasing the concentration to 10 μM. Amebae cultures: E. histolytica strain HM1:IMSS trophozoites were grown at 37° C. in TYI-S-33 medium supplemented with penicillin (100 U/mL) and streptomycin sulfate (100 μg/mL). Trophozoites were grown anaerobically in borosilicate tubes and subcultures were made 1-2 times a week. Trophozoites were detached for inoculation by chilling the cultures on ice for 20 minutes.
(§2) Trophozoite viability IC50determination
(§3) Giardia assays: 10 μL giardia trophozoites in growth medium were plated at a density of 10,000 cells/well in sterile 96-well black clear bottom assay plates. Fumagillin and fumagillol derivatives were 1:3 serially diluted from a 1 μM DMSO stock solution and then 100 μL/well were transferred in duplicate to the assay wells. Metronidazole (control) was 1:3 serially diluted in growth medium from a 100 μM stock solution in DMSO. The assay plates were placed in a BD GasPak™ EZ Container System (BD Diagnostics) to create an anaerobic growth environment. The sealed containers were incubated at 37° C. for 72 hr. Following incubation, 70 μL/well of the ATPLite reagent (PerkinElmer) was added to the assay plates for one-step lysis and ATP level detection. The luminescent signals of the assay plates were measured on an EnSpire 2300 plate reader (PerkinElmer). Concentration response titration points for each compound were fitted to a 4-parameters logistic nonlinear regression model using KaleidaGraph, yielding the IC50value and standard error (SE).
On the technique in general: ATP-based viability assays read luminescence as a measure of living cells.

Another test has as its system G. lamblia WB. The test is described as above. The conditions noted are these: Giardia duodenalis, read-out: Cell viability values Mean IC50 (nM) G. lamblia WB. It is filed as cell-based. As to the method:
as §1, §2, §3

The next test has as its system E. histolytica HM1: IMSS. Kind of test: Trophozoite viability IC50 determination, Amebae assay (ATPLite). It is filed as cell-based. The settings on record: Entamoeba histolytica, read-out: Cell viability values Mean IC50 (nM) E. histolytica HM1: IMSS. As to the method: as §1, §2, §3
Amebae assays: The protocol is identical to that described above except that the trophozoites were plated at a density of 5000 cells/well because of their larger size.

A further test addresses T1, Recombinant human MetAP2 (Homo sapiens, UniProt P50579).
T1 construct: purchased Bio-Techne/R&D systems
As to the kind of experiment: MetAP2 fluorescence assay. It counts as biochemical. The conditions noted are these: recombinant human MetAP2, H-Met-Gly-Pro-AMC substrate. As to the method: MetAP2 Fluorescence Assay
Recombinant human MetAP2 (Bio-Techne/R&D systems) was diluted to 10 μg/mL in the assay buffer (50 mM HEPES, 0.1 mM CoCl2, 100 mM NaCl, pH 7.5). The substrate, H-Met-Gly-Pro-AMC (Bio-Techne/R&D systems), was diluted to 500 μM with 2 μg/mL of the coupling enzyme, recombinant human dipeptidyl peptidase-4 (Bio-Techne/R&D systems), in assay buffer. 50 μL of 10 μg/mL recombinant human METAP2 were loaded into a flat-bottom black 96-well plate (Greiner Bio), and the reaction was initiated by adding 50 μL of the substrate/dipeptidyl peptidase-4 mixture. The reaction mixture was incubated at room temperature for 10 minutes, and the fluorescence was measured for 5 minutes at excitation and emission wavelengths of 380 nm and 460 nm, respectively, in kinetic mode. For IC50determination, 0.5 μL inhibitor solution was added to the reaction mixture. The reaction rates were used to calculate IC50with KaleidaGraph.

Setting [1] is: trophozoites, 72 hr, anaerobic, ATP level.

Molecules are shown by their SMILES. Like-named read-outs stand apart in the source and are kept apart here. Some results are limits rather than exact numbers.

T1 sequence (P50579 whole entry): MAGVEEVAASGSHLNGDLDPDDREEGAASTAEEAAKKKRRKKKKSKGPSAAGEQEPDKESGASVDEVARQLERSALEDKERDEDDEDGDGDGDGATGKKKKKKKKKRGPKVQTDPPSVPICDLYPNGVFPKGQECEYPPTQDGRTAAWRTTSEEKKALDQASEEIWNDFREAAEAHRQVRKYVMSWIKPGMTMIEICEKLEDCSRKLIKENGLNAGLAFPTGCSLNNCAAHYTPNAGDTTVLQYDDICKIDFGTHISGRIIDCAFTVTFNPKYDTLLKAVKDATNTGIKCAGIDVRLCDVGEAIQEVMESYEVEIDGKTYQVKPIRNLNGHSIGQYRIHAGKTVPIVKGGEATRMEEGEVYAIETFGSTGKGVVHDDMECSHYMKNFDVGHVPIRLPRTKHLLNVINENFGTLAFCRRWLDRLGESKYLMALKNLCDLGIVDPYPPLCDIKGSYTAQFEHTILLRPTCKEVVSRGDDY

Regarding `CO[C@@H]1[C@H](OC(=O)N(C)c2ccc(B(O)O)cc2)CC[C@]2(CO2)[C@H]1[C@@]1(C)O[C@@H]1CC=C(C)C` [No 20], the IC50 with G. lamblia GS (setting [1]) is 101 to 1000 nM; in the test on G. lamblia WB (setting [1]) it was 101 to 1000 nM; in the test with E. histolytica HM1: IMSS (setting [1]), 101 to 1000 nM; at Recombinant human MetAP2, below 10 nM.
On to `CO[C@@H]1[C@H](OC(=O)Nc2cc(B(O)O)cc(C(=O)O)c2)CC[C@]2(CO2)[C@H]1[C@@]1(C)O[C@@H]1CC=C(C)C` [No 21], for which the IC50 was 101 to 1000 nM with G. lamblia GS (72 h), 101 to 1000 nM in the test with G. lamblia WB (72 h), 101 to 1000 nM with E. histolytica HM1: IMSS (72 h) and below 10 nM at Recombinant human MetAP2.
For `CO[C@@H]1[C@H](OC(=O)Nc2cc(C(=O)O)ccc2B(O)O)CC[C@]2(CO2)[C@H]1[C@@]1(C)O[C@@H]1CC=C(C)C` [No 22], the IC50 with G. lamblia GS (setting [1]) is 101 to 1000 nM; in the test on G. lamblia WB (setting [1]) it was 101 to 1000 nM; with E. histolytica HM1: IMSS (setting [1]) it was 101 to 1000 nM; at Recombinant human MetAP2 it was below 10 nM.
Consider `CO[C@@H]1[C@H](OC(=O)Nc2cc(B(O)O)ccc2Cl)CC[C@]2(CO2)[C@H]1[C@@]1(C)O[C@@H]1CC=C(C)C` [No 23], for which the IC50 was 101 to 1000 nM in the test with G. lamblia GS (72 h), 101 to 1000 nM in the test on G. lamblia WB (72 h), 101 to 1000 nM in the test on E. histolytica HM1: IMSS (72 h) and below 10 nM at Recombinant human MetAP2.
Regarding `CO[C@@H]1[C@H](OC(=O)Nc2cc(C#N)ccc2B(O)O)CC[C@]2(CO2)[C@H]1[C@@]1(C)O[C@@H]1CC=C(C)C` [No 24], the IC50 is 101 to 1000 nM in the test with G. lamblia GS (72 h), 101 to 1000 nM in the test on G. lamblia WB (72 h), above 1000 nM in the test with E. histolytica HM1: IMSS (72 h) and below 10 nM on Recombinant human MetAP2.
Take `CO[C@@H]1[C@H](OC(=O)Nc2cc(C#N)cc(B(O)O)c2)CC[C@]2(CO2)[C@H]1[C@@]1(C)O[C@@H]1CC=C(C)C` [No 25]: the IC50 with G. lamblia GS (72 h) is 101 to 1000 nM; with G. lamblia WB (72 h) it was 101 to 1000 nM; with E. histolytica HM1: IMSS (72 h), above 1000 nM; at Recombinant human MetAP2 it was below 10 nM.
`CO[C@@H]1[C@H](OC(=O)Nc2cc(C)cc(B(O)O)c2)CC[C@]2(CO2)[C@H]1[C@@]1(C)O[C@@H]1CC=C(C)C` [No 28]: the IC50 was 10.1 to 100 nM with G. lamblia GS (72 h), 101 to 1000 nM in the test on G. lamblia WB (72 h), 101 to 1000 nM with E. histolytica HM1: IMSS (72 h) and below 10 nM at Recombinant human MetAP2.
Consider `CO[C@@H]1[C@H](OC(=O)NCc2cccc(B(O)O)c2)CC[C@]2(CO2)[C@H]1[C@@]1(C)O[C@@H]1CC=C(C)C` [No 29], for which the IC50 is 101 to 1000 nM with G. lamblia GS (72 h), 101 to 1000 nM with G. lamblia WB (72 h), 101 to 1000 nM in the test with E. histolytica HM1: IMSS (72 h) and below 10 nM on Recombinant human MetAP2.
Take `CO[C@@H]1[C@H](OC(=O)NCc2ccc(B(O)O)cc2)CC[C@]2(CO2)[C@H]1[C@@]1(C)O[C@@H]1CC=C(C)C` [No 30]: the IC50 in the test with G. lamblia GS (72 h) was 101 to 1000 nM; in the test on G. lamblia WB (72 h), 101 to 1000 nM; in the test on E. histolytica HM1: IMSS (72 h), 101 to 1000 nM; at Recombinant human MetAP2 it was below 10 nM.
As to `CO[C@@H]1[C@H](OC(=O)NCc2cc(F)ccc2B(O)O)CC[C@]2(CO2)[C@H]1[C@@]1(C)O[C@@H]1CC=C(C)C` [No 31], the IC50 was 101 to 1000 nM with G. lamblia GS (72 h), 101 to 1000 nM in the test on G. lamblia WB (72 h), above 1000 nM in the test with E. histolytica HM1: IMSS (72 h) and below 10 nM on Recombinant human MetAP2.
In the case of `CO[C@@H]1[C@H](OC(=O)Nc2cc(B(O)O)cc([N+](=O)[O-])c2)CC[C@]2(CO2)[C@H]1[C@@]1(C)O[C@@H]1CC=C(C)C` [No 33], the IC50 with G. lamblia GS (72 h) was 101 to 1000 nM; in the test with G. lamblia WB (72 h), above 1000 nM; in the test on E. histolytica HM1: IMSS (72 h) it was above 1000 nM; on Recombinant human MetAP2 it was below 10 nM.
In the case of `CO[C@@H]1[C@H](OC(=O)Nc2ccc(F)c(F)c2B(O)O)CC[C@]2(CO2)[C@H]1[C@@]1(C)O[C@@H]1CC=C(C)C` [No 34], the IC50 was 101 to 1000 nM in the test with G. lamblia GS (setting [1]), above 1000 nM in the test on G. lamblia WB (setting [1]), above 1000 nM with E. histolytica HM1: IMSS (setting [1]) and below 10 nM on Recombinant human MetAP2.

As a reminder, the IC50 is the midpoint of a concentration-inhibition curve.

These data come from patent US20260166046A1, “Inhibitors of methionine aminopeptidase-2 and methods of preparation and uses thereof” (Primetime Life Sciences LLC, priority 2022, published 2026).
